Experimental data reported in paper PMC6365497, “2-aminoimidazoles collapse mycobacterial proton motive force and block the electron transport chain” (Scientific Reports, 2019).
Converted amounts (≈) assume the structure as drawn. Read-outs that look alike come from different tables or passages of the source.

Columns and labels:
[1] = system: M. tuberculosis; design: method as in PMID 28749949; settings: cited from earlier work
[2] = system: M. tuberculosis; experiment: microbe, parasite or virus in culture; type: cell-based, Mycobacterium tuberculosis; settings: Mycobacterium tuberculosis, read-out: MIC (MIC95)
[3] = system: M. tuberculosis mc^2 6206; type: cell-based, Mycobacterium tuberculosis
[4] = system: M. smegmatis IMVs; experiment: NADH oxidation by IMVs; type: biochemical; settings: for NADH oxidation (summary): Table S2 summary
[5] = system: M. tuberculosis; experiment: Quantification of intracellular ATP; settings: Table S2 summary
[6] = system: M. smegmatis IMVs; experiment: ETC activity assay with IMVs (INT reduction); type: biochemical; settings: for ETC activity (summary): Table S2 summary
[7] = system: M. tuberculosis H37Rv mc^2 6206; type: cell-based, Mycobacterium tuberculosis
[8] = system: M. tuberculosis; experiment: β-lactam potentiation assay; type: cell-based, Mycobacterium tuberculosis; settings: for β-lactam potentiation (summary): Table S2 summary
[9] = system: M. smegmatis IMVs; experiment: Determination of ΔpH collapse with IMVs (ACMA); settings: Table S2 summary
[10] = system: M. smegmatis; experiment: Determination of Δψ collapse by DisC3(5); type: cell-based; settings: Table S2 summary
[11] = system: M. tuberculosis; experiment: Kinetic measurement of alamarBlue reduction; type: cell-based, Mycobacterium tuberculosis; settings: Table S2 summary; mycobacteria
[12] = system: M. smegmatis IMVs; type: biochemical
[13] = M. tuberculosis, compound at 50% of its MIC, MIC of β-lactam / MIC of β-lactam plus drug

Compound	Effect on NADH oxidation (fluorescence decay 340ex/460em) [4]	NADH oxidation (summary) [4]	[ATP]i (summary) [5]	ETC activity (summary) [6]	NADH/NAD^+ ratio [7]	β-lactam potentiation (summary) [8]	ΔpH collapse (summary) [9]	Δψ collapse (summary) [10]	alamarBlue reduction (summary) [11]	further results
C[C@@H](O)[C@H]1C(=O)N2C(C(=O)O)=C(S[C@@H]3CN[C@H](C(=O)N(C)C)C3)[C@H](C)[C@H]12 [Meropenem]	–	–	–	–	–	–	–	–	–	MIC (MIC95) [1]: 8 µg/mL (≈ 20.9 µM)
COc1nc2ccc(Br)cc2cc1[C@@H](c1ccccc1)[C@@](O)(CCN(C)C)c1cccc2ccccc12 [BDQ, bedaquiline, reference compound]	inhibited	Intermediate ↓	S t r o ng ↓	N o effect	increased	Weak ↑	Intermediate	N o effect	N o effect	MIC ([2]; M. tuberculosis): 0.125 µM (≈ 0.0694 µg/mL); Effect on oxygen consumption rate (OCR) ([3]; M. tuberculosis, stepwise increasing concentration, media without BSA): significantly increased M. tuberculosis OCR; Concentration up to which OCR increased (levelling off) ([3]; M. tuberculosis, stepwise increments): 9 µM; NADH/NAD+ ratio (summary) ([7]; Table S2 summary): Intermediate ↑; Fold potentiation of Carbenicillin [8, 13]: 4x; Fold potentiation of Meropenem [8, 13]: 4x
CSc1ccc2c(c1)N(CCC1CCCCN1C)c1ccccc1S2 (stereo not drawn) [TRZ, thioridazine, reference compound]	significantly slowed down	S t r o ng ↓	S t r o ng ↓	S t r o ng ↓	increased	Intermediate ↑	S t r o ng	Intermediate	S t r o ng ↓	MIC [2]: 62.5 µM (≈ 23.2 µg/mL); Effect on oxygen consumption rate (OCR) [3]: significantly increased M. tuberculosis OCR; ETC activity (INT reduction at 490 nm) [6]: none and potent and intermediate; NADH/NAD+ ratio (summary) [7]: S t r o ng ↑; Fold potentiation of Carbenicillin [8]: 16x; Fold potentiation of Meropenem [8]: 32x; Restoration of inhibited NADH oxidation by CFZ [12]: not altered by CFZ; Rescue by CFZ (summary) ([12]; Table S2 summary): No
